Test results from patent US20230203060A1 (GENFLEET THERAPEUTICS (SHANGHAI) INC., priority 2020, published 2023).
Counter-ions that a name gives are not always drawn.

system: KRAS G12C mutant MIA PaCa-2 cells; assay: Cell proliferation inhibition experiment, 3D spheroid, CellTiter-Glo, MIA PaCa-2; type: cell-based, human; conditions: 3D cell model in 384-well spheroid plate, 5 days, CellTiter-Glo; read-out: MIA-PaCa2 IC50
In short: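 200 MIA PaCa-2 cells/well grown overnight as 3D spheroids, then exposed to 3.16-fold compound dilutions (0.1% DMSO final) for 5 days. Viability read by CellTiter-Glo luminescence; inhibition calculated against DMSO and medium-only controls, and IC50 fitted by four-parameter model.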

IC50	Structure (SMILES)
0.0509 µM	C=CC(=O)N1CCN2C(=O)c3c(N4C[C@H](N(C)C)CC4(C)C)nc(-c4ccccc4)c(Cl)c3OC[C@H]2C1 (single isomer, unassigned) [Z655-2]
0.0013 µM	C=CC(=O)N1CCN2C(=O)c3c(N4CC(N(C)C5COC5)CC4(C)C)nc(-c4c(O)cccc4F)c(Cl)c3OC[C@H]2C1 (single isomer, unassigned) [Z331-2]
0.0017 µM	C=CC(=O)N1CCN2C(=O)c3c(N4CCN(C)C(C)C4C)nc(-c4c(O)cccc4F)c(Cl)c3OC[C@H]2C1 (stereo partly drawn) [Z308a, (6aR)-8-acryloyl-4-chloro-3-(2-fluoro-6-hydroxyphenyl)-1-(2,3,4-trimethylpiperazin-1-yl)-6,6a,7,8,9,10-hexahydro-12H-pyrazino[2,1-c]pyrido[3,4-f][1,4]oxazepin-12-one]
0.047 µM	C=CC(=O)N1CCN2C(=O)c3c(N4C[C@H](N(C)CCF)CC4(C)C)nc(-c4ccccc4F)c(Cl)c3OC[C@H]2C1 (single isomer, unassigned) [Z660-2]
0.0092 µM	C=CC(=O)N1CCN2C(=O)c3c(N4CCN(C)C[C@@H]4C)nc(-c4c(O)cccc4Cl)c(Cl)c3OC[C@H]2C1 (single isomer, unassigned) [Z455-2]
0.016 µM	C=CC(=O)N1CCN2C(=O)c3c(C4NCCN5C(=O)CCC45C)nc(-c4c(O)cccc4F)c(Cl)c3OC[C@H]2C1 (stereo partly drawn) [Z337, (6aR)-8-acryloyl-4-chloro-3-(2-fluoro-6-hydroxyphenyl)-1-(8a-methylhexahydropyrrolo[1,2-a]pyrazin-6 (2H)-one-1-yl)-6,6a,7,8,9,10-hexahydro-12H-pyrazino[2,1-c]pyrido[3,4-f][1,4]oxazepin-12-one]
0.0869 µM	C=CC(=O)N1CCN2C(=O)c3c(N4CCN(C)C[C@@H]4C)nc(-c4c(O)cccc4Cl)c(Cl)c3OC[C@H]2C1 (single isomer, unassigned) [Z455-1]
0.0093 µM	C=CC(=O)N1CCN2C(=O)c3c(N4CC(N(C)CC(F)F)CC4(C)C)nc(-c4ccccc4F)c(Cl)c3OC[C@H]2C1 (some centres unmarked) [Z659]
0.012 µM	C=CC(=O)N1CCN2C(=O)c3c(N4CC(N5CCOCC5)CC4(C)C)nc(-c4ccccc4F)c(Cl)c3OC[C@H]2C1 (single isomer, unassigned) [Z468-2]

same assay, conditions: Homo sapiens, MIA PaCa-2, 120 h, 3D cell model in 384-well spheroid plate, 5 days, CellTiter-Glo; read-out: MIA-PaCa2 IC50

IC50	Structure (SMILES)
0.143 µM	C=CC(=O)N1CCN2C(=O)c3c(Nc4c(C)ccnc4C(C)C)nc(-c4c(O)cccc4F)c(Cl)c3OC[C@H]2C1 [Z5, (6aR)-8-acryloyl-4-chloro-3-(2-fluoro-6-hydroxyphenyl)-1-((2-isopropyl-4-methylpyridin-3-yl)amino)-6,6a,7,8,9,10-hexahydro-12H-pyrazino[2,1-c]pyrido[3,4-f][1,4]oxazepin-12-one]
0.0113 µM	C=CC(=O)N1CCN2C(=O)c3c(N4CCN(CCO)C[C@@H]4C)nc(-c4c(O)cccc4F)c(Cl)c3OC[C@H]2C1 [Z257, (6aR)-8-acryloyl-4-chloro-3-(2-fluoro-6-hydroxyphenyl)-1-((S)-4-(2-hydroxyethyl)-2-methylpiperazin-1-yl)-6,6a,7 ,8,9,10-hexahydro-12H-pyrazino[2,1-c]pyrido[3,4-f][1,4]oxazepin-12-one]
0.0108 µM	C=CC(=O)N1CCN2C(=O)c3c(N4CC(O)CC4(C)C)nc(-c4c(O)cccc4F)c(F)c3OC[C@H]2C1 (stereo partly drawn) [Z256, (6aR)-8-acryloyl-4-fluoro-3-(2-fluoro-6-hydroxyphenyl)-1-(4-hydroxy-2,2-dimethylpyrrolidin-1-yl)-6,6a,7,8,9,10-hexahydro-12H-pyrazino[2,1-c]pyrido[3,4-f][1,4]oxazepin-12-one]
0.0045 µM	C=CC(=O)N1CCN2C(=O)c3c(N4CC(=O)N(C)CC4C)nc(-c4c(O)cccc4F)c(Cl)c3OC[C@H]2C1 (stereo partly drawn) [Z221, (6aR)-8-acryloyl-4-chloro-1-(2,4-dimethyl-5-oxopiperazin-1-yl)-3-(2-fluoro-6-hydroxyphenyl)-6,6a,7,8,9,10-hexahydro-12H-pyrazino[2,1-c]pyrido[3,4-f][1,4]oxazepin-12-one]
0.034 µM	C=CC(=O)N1CCN2C(=O)c3c(N4CCOC5CC54)nc(-c4c(O)cccc4F)c(Cl)c3OC[C@H]2C1 (stereo partly drawn) [Z76, (6aR)-8-acryloyl-4-chloro-1-(2-oxa-5-azabicyclo[4.1.0]heptan-5-yl)-3-(2-fluoro-6-hydroxyphenyl)-6,6a,7,8,9,10-hexahydro-12H-pyrazino[2,1-c]pyrido[3,4-f][1,4]oxazepin-12-one]
0.067 µM	C=CC(=O)N1CCN2C(=O)c3c(NC(C)C)nc(-c4c(O)cccc4F)c(Cl)c3OC[C@H]2C1 [Z75, (6aR)-8-acryloyl-4-chloro-1-(isopropylamino)-3-(2-fluoro-6-hydroxyphenyl)-6,6a,7,8,9,10-hexahydro-12H-pyrazino[2,1-c]pyrido[3,4-f][1,4]oxazepin-12-one]
0.0011 µM	C=CC(=O)N1CCN2C(=O)c3c(N4CC(N(C)C5COC5)CC4(C)C)nc(-c4c(O)cccc4F)c(Cl)c3OC[C@H]2C1 (single isomer, unassigned) [Z331-1]
0.026 µM	C=CC(=O)N1CCN2C(=O)c3c(OC4CCN(C)CC4)nc(-c4c(O)cccc4F)c(Cl)c3OC[C@H]2C1 [Z61, (6aR)-8-acryloyl-4-chloro-3-(2-fluoro-6-hydroxyphenyl)-1-((1-methylpiperidin-4-yl)oxy)-6,6a,7,8,9,10-hexahydro-12H-pyrazino[2,1-c]pyrido[3,4-f][1,4]oxazepin-12-one]
0.0106 µM	C=CC(=O)N1CCN2C(=O)c3c(N4CCN(C)C(C)(C)C4)nc(-c4c(O)cccc4F)c(Cl)c3OC[C@H]2C1 [Z261, (6aR)-8-acryloyl-4-chloro-3-(2-fluoro-6-hydroxyphenyl)-1-(3,3,4-trimethylpiperazin-1-yl)-6,6a,7,8,9,10-hexahydro-12H-pyrazino[2,1-c]pyrido[3,4-f][1,4]oxazepin-12-one]
0.0228 µM	C=CC(=O)N1CCN2C(=O)c3c(N4CCN(C)[C@H](C)C4)nc(-c4c(O)cccc4F)c(Cl)c3OC[C@H]2C1 [Z235, (6aR)-8-acryloyl-4-chloro-1-((R)-3,4-dimethylpiperazin-1-yl)-3-(2-fluoro-6-hydroxyphenyl)-6,6a,7,8,9,10-hexahydro-12H-pyrazino[2,1-c]pyrido[3,4-f][1,4]oxazepin-12-one]
0.0088 µM	C=CC(=O)N1CCN2C(=O)c3c(N4CC(=O)N(C)CC4C)nc(-c4c(O)cccc4F)c(Cl)c3OC[C@H]2C1 (single isomer, unassigned) [Z221-1]
0.0044 µM	C=CC(=O)N1CCN2C(=O)c3c(N4C[C@@H](O)C[C@@H]4C)nc(-c4c(O)cccc4F)c(Cl)c3OC[C@H]2C1 [Z260, (6aR)-8-acryloyl-4-chloro-3-(2-fluoro-6-hydroxyphenyl)-1-((2S,4S)-4-hydroxy-2-methylpyrrolidin-1-yl)-6,6a,7,8,9,10-hexahydro-12H-pyrazino[2,1-c]pyrido[3,4-f][1,4]oxazepin-12-one]
0.034 µM	C=CC(=O)N1CCN2C(=O)c3c(N4CCNC(C)C4C)nc(-c4c(O)cccc4F)c(Cl)c3OC[C@H]2C1 (stereo partly drawn) [Z308, (6aR)-8-acryloyl-4-chloro-1-(2,3-dimethylpiperazin-1-yl)-3-(2-fluoro-6-hydroxyphenyl)-6,6a,7,8,9, 10-hexahydro-12H-pyrazino[2,1-c]pyrido[3,4-f][1,4]oxazepin-12-one]
0.028 µM	C=CC(=O)N1CCN2C(=O)c3c(NC(C)(C)C)nc(-c4c(O)cccc4F)c(Cl)c3OC[C@H]2C1 [Z69, (6aR)-8-acryloyl-1-(tert-butylamino)-4-chloro-3-(2-fluoro-6-hydroxyphenyl)-6,6a,7,8,9,10-hexahydro-12H-pyrazino[2,1-c]pyrido[3,4-f][1,4]oxazepin-12-one]
0.023 µM	C=CC(=O)N1CCN2C(=O)c3c(N4CCOC5(CC5)C4)nc(-c4c(O)cccc4F)c(Cl)c3OC[C@H]2C1 [Z63, (6aR)-8-acryloyl-4-chloro-1-(4-oxa-7-azaspiro[2.5]octan-7-yl)-3-(2-fluoro-6-hydroxyphenyl)-6,6a,7,8,9,10-hexahydro-12H-pyrazino[2,1-c]pyrido[3,4-f][1,4]oxazepin-12-one]
0.004 µM	C=CC(=O)N1CCN2C(=O)c3c(N4C[C@H](NC)CC4(C)C)nc(-c4ccccc4F)c(Cl)c3OC[C@H]2C1 (single isomer, unassigned) [Z661-2]
0.018 µM	C=CC(=O)N1CCN2C(=O)c3c(N4CC[C@@H]4C)nc(-c4c(O)cccc4F)c(Cl)c3OC[C@H]2C1 [Z68, (6aR)-8-acryloyl-1-((S)-2-methylazetidin-1-yl)-4-chloro-3-(2-fluoro-6-hydroxyphenyl)-6,6a,7,8,9,10-hexahydro-12H-pyrazino[2,1-c]pyrido[3,4-f][1,4]oxazepin-12-one]
0.017 µM	C=CC(=O)N1CCN2C(=O)c3c(N(C)c4c(C)ccnc4C(C)C)nc(-c4c(O)cccc4F)c(Cl)c3OC[C@H]2C1 [Z6, (6aR)-8-acryloyl-4-chloro-3-(2-fluoro-6-hydroxyphenyl)-1-((2-isopropyl-4-methylpyridin-3-yl)(methyl)amino)-6,6a,7,8,9,10-hexahydro-12H-pyrazino[2,1-c]pyrido[3,4-f][1,4]oxazepin-12-one]

same assay, conditions: Homo sapiens, MIA PaCa-2, 120 h, read-out: MIA-PaCa2 IC50

Structure (SMILES)	IC50
C=CC(=O)N1CCN2C(=O)c3c(N4CCN(CC)C[C@@H]4C)nc(-c4c(O)cccc4F)c(Cl)c3OC[C@H]2C1 [Z236]	0.0079 µM
C=CC(=O)N1CCN2C(=O)c3c(N4CCN(C)C(C)(C)C4)nc(-c4ccccc4F)c(Cl)c3OC[C@H]2C1 [Z463, (R)-8-acryloyl-4-chloro-3-(2-fluorophenyl)-1-(3,3,4-trimethylpiperazin-1-yl)-6,6a,7,8,9,10-hexahydro-12H-pyrazino[2,1-c]pyrido[3,4-f][1,4]oxazepin-12-one, formate]	0.059 µM
